Data: ChEMBL document CHEMBL1122054, “Lysosomotropic agents. 4. Carbobenzoxyglycylphenylalanyl, a new protease-sensitive masking group for introduction into cells” (J Med Chem, 1982)
Where a SMILES comes first, the peptide text is derived from it. [ ]: non-standard residue; d: D form. The star is where a group is joined. Cbz = O=C(OCc1ccccc1)*

Tests used:
[1] = species on record: Mus musculus; test: Appearance of mouse peritoneal macrophages after 3h of treatment with compound at a concentration of 0.375 mM; OK; assay type: functional, organism-based
[2] = species on record: Mus musculus; test: Toxicity toward P-815 Mastocytoma cells after 5 hr was determined as percent of [51Cr]- release from labeled cells as a measure of cell death. at a concentration of 0.750 mM. (expt III); assay type: functional
[3] = species on record: Mus musculus; test: Cytotoxicity was determined against mouse peritoneal macrophages (MPM) and the percent of LDH released after 24 hr was determined as a measure of cell death at a concentration of 0.375 mM (expt I); assay type: functional
[4] = species on record: Mus musculus; test: Cytotoxicity was determined against mouse peritoneal macrophages (MPM) and the percent of LDH released after 24 hr was determined as a measure of cell death at a concentration of 0.375 mM (expt II); assay type: functional
[5] = species on record: Mus musculus; test: Toxicity toward P-815 Mastocytoma cells after 5 hr was determined as percent of [51Cr]- release from labeled cells as a measure of cell death. at a concentration of 0.282 mM. (expt IV); assay type: functional
[6] = species on record: Mus musculus; test: Toxicity toward P-815 Mastocytoma cells after 5 hr was determined as percent of [51Cr]- release from labeled cells as a measure of cell death. at a concentration of 0.281 mM. (expt IV); assay type: functional
[7] = species on record: Mus musculus; test: Cytotoxicity was determined against mouse peritoneal macrophages (MPM) and the percent of LDH released after 24 hr was determined as a measure of cell death at a concentration of 0.561 mM (expt II); assay type: functional
[8] = species on record: Mus musculus; test: Toxicity toward P-815 Mastocytoma cells after 5 hr was determined as percent of [51Cr]- release from labeled cells as a measure of cell death. at a concentration of 0.282 mM. (expt III); assay type: functional
[9] = species on record: Mus musculus; test: Toxicity toward P-815 Mastocytoma cells after 5 hr was determined as percent of [51Cr]- release from labeled cells as a measure of cell death. at a concentration of 0.208 mM. (expt III); assay type: functional
[10] = species on record: Mus musculus; test: Toxicity was evaluated for the compound at a concentration of 0.208 mM against […] Mastocytoma.; assay type: functional
[11] = species on record: Mus musculus; test: Toxicity toward P-815 Mastocytoma cells after 5 hr was determined as percent of [51Cr]- release from labeled cells as a measure of cell death. at a concentration of 0.257 mM. (expt III); assay type: functional
[12] = species on record: Mus musculus; test: Cytotoxicity was determined for the compound against mouse peritoneal macrophages (MPM) at a concentration of 0.514 mM.; assay type: functional
[13] = species on record: Mus musculus; test: Cytotoxicity was determined for the compound against mouse peritoneal macrophages (MPM) at a concentration of 0.541 mM.; assay type: functional
[14] = species on record: Mus musculus; test: Toxicity was evaluated for the compound at a concentration of 0.257 mM against […] Mastocytoma.; assay type: functional

`CCCCCCCCCCCCNCC(F)(F)F` was tested, and the Activity [1] was “OK”, the Cr release [2] was 15% and the LDH release [3] was 52%. It also gave an LDH release [4] of 64%.
`NC(=O)[C@@H](Cc1ccccc1)NC(=O)CNC(=O)OCc1ccccc1` was tested, and the Cr release [5] was 17%.
Compound `O=C(CNC(=O)OCc1ccccc1)N[C@H](Cc1ccccc1)C(=O)O` (Cbz-Gly-[dF]-OH) has a Cr release [6] of 16% and an LDH release [7] of 17%.
`NC(=O)[C@H](Cc1ccccc1)NC(=O)CNC(=O)OCc1ccccc1` showed a Cr release [8] of 17%.
Compound `O=C(CNC(=O)OCc1ccccc1)N[C@@H](Cc1ccccc1)C(=O)N(CCCl)CCCl` has a Cr release [9] of 16% and a Toxicity [10] of 100 µg/mL.
`CCCCCCCCCCCCNC(=O)[C@@H](Cc1ccccc1)NC(=O)CN` was tested, and the Cr release [11] was 95%, the LDH release [3] was 85% and the LDH release [4] was 78%. It also gave a Toxicity [12] of 200 µg/mL, a Toxicity [13] of 210 µg/mL and a Toxicity [14] of 100 µg/mL.
